Test results reported in publication PMC12175177 (Frontiers in Pharmacology, 2025).
Counter-ions that a name gives are not always drawn. Like-named read-outs stand apart in the source and are kept apart here.

What was measured:
Assay type in all cases: cell-based
[1] = system: SARS-CoV-2 Delta variant (SEQ203); settings: for % inhibition Vero E6 Delta MOI 0.0001 / % inhibition Vero E6 Delta MOI 0.01: at MNCC, 48 h; for % inhibition Vero E6 Delta MOI 0.0001: 1x; for % inhibition Vero E6 Delta MOI 0.01: mean 2x
[2] = system: SARS-CoV-2 A2.5 variant (M2169); settings: at MNCC, […], 48 h, 1x
[3] = system: SARS-CoV-2 A2.5 variant (M2169); settings: at MNCC; […]; 48 h; mean 2x
[4] = system: SARS-CoV-2 Delta variant (SEQ203); settings: at MNCC, 48 h, 1x

Molecule	antiviral inhibition at MOI = 0.00001 [1] [%]	% inhibition Vero E6 Delta MOI 0.0001 [1] [%]	% inhibition Vero E6 Delta MOI 0.01 [1] [%]	% inhibition Vero E6 A2.5 MOI 0.01 [2]	% inhibition Calu-3 A2.5 MOI 0.01 [3]	% inhibition Calu-3 Delta MOI 0.01 [4] [%]	% inhibition Calu-3 Delta MOI 0.01 ([4]; listed as AS)	viral inhibition, secondary screening, Delta [1]	% inhibition Vero E6 A2.5 MOI 0.01 ([2]; listed as IVM-li) [%]	% inhibition Calu-3 Delta MOI 0.01 ([4]; listed as IVM-l) [%]
CCN(CC)Cc1cc(Nc2ccnc3cc(Cl)ccc23)ccc1O [Amodiaquine (AQ), Amodiaquine]	≥ 20	42	11	showed activity	showed activity					
CCO[C@H]1O[C@@H]2O[C@@]3(C)CC[C@H]4[C@H](C)CC[C@@H]([C@H]1C)[C@@]24OO3 [Arteether (AE), Arteether]	≥ 20	23	8	10%	showed activity	5				
C[C@H]1[C@H](N2CCS(=O)(=O)CC2)O[C@@H]2O[C@@]3(C)CC[C@H]4[C@H](C)CC[C@@H]1[C@@]24OO3 [Artemisone (ASO), Artemisone]		15	10	showed activity		16				
C[C@H]1[C@H](OC(=O)CCC(=O)O)O[C@@H]2O[C@@]3(C)CC[C@H]4[C@H](C)CC[C@@H]1[C@@]24OO3 [Artesunic acid (AS), Artesunic acid]		37	18	45%		42	effective			
CCN(CCO)CCCC(C)Nc1ccnc2cc(Cl)ccc12 (stereo not drawn) [Hydroxychloroquine Minsa (HCQ-m), Hydroxychloroquine]		43	18	0%						
O=C(Nc1cccc(C2=NCCN2)c1)Nc1cccc(C2=NCCN2)c1 [Imidocarb (IMI), Imidocarb]		0	11		14%	16				
CCCCN(CCCC)CC(O)c1cc(Cl)cc2c1-c1ccc(Cl)cc1/C2=C/c1ccc(Cl)cc1 (stereo not drawn) [Lumefantrine (LUM), Lumefantrine]		0	14		19%					
CN(C)c1ccc2nc3ccc(=[N+](C)C)cc-3sc2c1 [Methylene Blue Injection (MBi), Methylene Blue]		16	10	2%	18%					
C=C[C@H]1C[N@@]2CC[C@H]1C[C@H]2[C@H](O)c1ccnc2ccc(OC)cc12 [Quinine Sulfate (QN), Quinine Sulfate]		0	9	18%	0%					
COc1cc(C)c2c(Oc3cccc(C(F)(F)F)c3)c(OC)cc(NC(C)CCCN)c2n1 (stereo not drawn) [TQ, tafenoquine]								at least 20%		
Ferroquine [Ferroquine (FQ)]		23	7	12%		4				
Ivermectin [Ivermectin Farmacia (IVM-f)]	≥ 20	44	5		16%	5				
Ivermectin [Ivermectin Liquida (IVM-li)]		0	15	52%		45			≥ 20	≥ 20
